Counter-ions that a name gives are not always drawn.
Legend:
Assay type in all cases: cell-based, human
[1] = system: N1^+/− ECs; assay: Validation trials of screen candidates by targeted RNA-seq with the trained KNN algorithm; settings: duplicate or triplicate; one or more replicates classified as WT
Description: (§1) Starting on day 15 of differentiation, WT ECs were exposed to 10 μM DMSO (dimethyl sulfoxide) (n=80) while isogenic N1^+/− ECs were exposed to either 10 μM DMSO (n=80) or one of the small molecules from the LOPAC (1280 molecules) (Sigma LO1280) or Sheng Ding (315 molecules) chemical libraries. DMSO or small molecules were renewed with EC media (ScienCell #1001) changes on alternating days until the cells were ultimately collected for analysis on day 21. ECs were imaged using the IN Cell Analyzer on day 21 to evaluate morphology and cell death; wells with extensive cell death were eliminated from final analyses. For validation experiments, promising small molecules identified from the initial screen were applied to N1^+/− ECs in duplicate or triplicate along with controls of DMSO-exposed WT and N1^+/− ECs (n=4 each) using the same process as the initial screen described above.
(§2) ECs were lysed and RNA was isolated using the Qiagen RNeasy 96-well purification kit. RNA was diluted so that it was between the 10 pg-1 ng range accepted by the Cellular Research Precise targeted RNA-seq (RNA sequencing) system. Targeted RNA-seq libraries were prepared as per the Cellular Research Precise protocol (Rev 03092015), which includes both molecule and sample barcoding. The selected 119 target genes (see Table 1) included 3 low-expressing housekeeping genes for normalization (CHMP2A, C1orf43, REEP5) and either predicted central regulatory nodes or peripheral genes positioned within varied regions of the N1 network to permit identification of small molecules that affected central nodes as well as those that may have a synergistic effect in combination due to regulating different aspects of the network. Briefly, RNA was added to the Precise Encoding Plate containing indexed dT primer, dNTPs, and Spike-in mRNA controls and incubated at 65° C. for 3 minutes followed by cooling on ice. A master-mix of RT enzyme, RNase inhibitor, and buffer was then added to the samples, and they were incubated at 42° C. for 30 minutes followed by 80° C. for 5 minutes. Each plate of samples was combined into a single 2 ml tube and purified with AMPureXP beads. N1 PCR master-mix was added and samples were incubated for 94° C. for 2 minutes, followed by 15 cycles of 94° C. for 30 seconds, 55° C. for 3 minutes, and 68° C. for 1 minute, followed by 68° C. for 7 minutes. Samples were purified with AMPureXP beads and N2 PCR master-mix was added. Samples were incubated with the same thermal cycler program as above for 12 cycles. These final libraries were then purified with AMPureXP beads and analyzed for quality and concentration by Agilent Bioanalyzer and Illumina Library Quantification Kit (KAPA Biosystems), respectively. Libraries were normalized to equivalent concentration and pooled for paired-end 100 bp sequencing on an Illumina HiSeq 2500 instrument.
Sequencing data was analyzed using Cellular Research Precise Analysis Pipeline on the SevenBridges platform, which included analyzing sequencing quality with FASTQC, trimming adapters and filtering reads, demultiplexing based on sample barcodes, aligning reads with Bowtie 2, and determining the number of unique molecular indices per gene. Network inference was based on mutual information of gene expression from all DMSO- and small molecule-exposed samples as described in Margolin et al., BMC Bioinformatics. 2006; 7 Suppl 1:S7. Network diagram was generated using NetworkX (Hagberg et al., Exploring Network Structure, Dynamics, and Function using NetworkX. SciPy. 2008) based on network connections inferred from the small molecule screen data as described above with colors based on whole transcriptome RNA-seq gene expression of isogenic N1^+/− compared to WT ECs.
Promising small molecules were identified using either K-nearest neighbor (KNN) or hierarchical clustering algorithms. […]

[2] = system: N1^+/− iPSC-derived ECs; assay: Network-based small molecule screen by targeted RNA-seq of 119 genes (KNN and hierarchical clustering); settings: for KNN classification of network gene expression of treated N1^+/− ECs: initial screen of 1595 small molecules, treatment day 15 to day 21 of differentiation, KNN k=2; for hierarchical clustering of transcriptional profile of treated N1-haploinsufficient ECs with WT ECs: initial screen, complete agglomeration method
Source text: TALEN-engineered isogenic human iPSCs that were either WT (wild-type) or N1^+/− were derived and characterized as detailed in Theodoris et al., Cell. 2015; 160:1072-1086. Isogenic iPSCs (induced pluripotent stem cells) were differentiated into ECs as previously described (Theodoris et al., 2015; White et al., Stem Cells. 2012; 31:92-103). On day 13 of the differentiation process, ECs were greater than 90% double-positive for CD31 (BD #558068) and CD144 (#FAB9381P) by FACS (fluorescence-activated cell sorting) analysis (FIGS. 9G-H). Small molecule experiments (described below) were conducted at day 15 of differentiation.
as §1, §2
Sequencing data was analyzed using Cellular Research Precise Analysis Pipeline on the SevenBridges platform, which included analyzing sequencing quality with FASTQC, trimming adapters and filtering reads, demultiplexing based on sample barcodes, aligning reads with Bowtie 2, and determining the number of unique molecular indices per gene. Network inference was based on mutual information of gene expression from all DMSO- and small molecule-exposed samples as described in Margolin et al., BMC Bioinformatics. […]

[3] = system: N1^+/− ECs; assay: Whole transcriptome RNA-seq of N1^+/− ECs treated with network-correcting molecules
Description: ECs were lysed and RNA was isolated using the Qiagen RNeasy Micro purification kit. RNA-seq libraries were constructed using the Clontech SMRTer Stranded RNA-seq Library Prep Kit for Illumina per kit protocol. Libraries were analyzed by Agilent Bioanalyzer, normalized to equivalent concentration, pooled, gel purified, and sequenced 75 bp paired-end on an Illumina NextSeq instrument with 10% PhiX.
Sequencing quality was assessed with FASTQC (located on the web by placing “www.” in front of “bioinformatics.babraham.ac.uk/projects/fastqc/”). Reads were aligned to the hg19 (Homo sapiens assembly February 2009) transcriptome and genome using the Spliced Transcripts Alignment to a Reference (STAR) Aligner (Dobin et al., Bioinformatics. 2012; 29:15-21) and differential expression was analyzed using Cuffdiff (Trapnell et al., Nat Biotechnol. 2012; 31:46-53). HOPACH was used for clustering with the correlation metric (van der Laan and Pollard; located on the web by placing “www.” in front of “bioconductor.org/packages/devel/bioc/manuals/hopach/man/hopach.pdf”. GO analyses were completed using GO-Elite and ToppGene (Chen et al., Nucleic Acids Research. 2009; 37:W305-W311; Zambon et al., Bioinformatics. 2012; 28:2209-2210). Network diagrams were generated using NetworkX (Hagberg et al., SciPy. 2008) based on network connections inferred from mRNA-seq gene expression of isogenic N1^+/− compared to WT ECs with colors based on whole transcriptome RNA-seq gene expression of DMSO- vs small molecule-treated WT and N1^+/− ECs.

| Structure (SMILES) | KNN classification of treated N1^+/− ECs in validation trials [1] | KNN classification of network gene expression of treated N1^+/− ECs [2] | hierarchical clustering of transcriptional profile of treated N1-haploinsufficient ECs with WT ECs [2] | also measured |
| --- | --- | --- | --- | --- |
| O[C@@](CCN1CCCCC1)(c1ccccc1)[C@@H]1CC2C=CC1C2 (mixture of isomers) [Biperiden_hydrochloride] | classified as WT |  |  |  |
| CCCCC[C@H](O)/C=C/[C@H]1[C@H](O)CC(=O)[C@@H]1CCCCCCC(=O)O [Alprostadil] |  | classified as WT |  |  |
| CC(/C=C/c1cccc(Oc2ccc(F)cc2)c1)N(O)C(N)=O (centres unmarked) [BWB70C] |  |  | cluster with WT ECs |  |
| NC(=O)c1cc(N2CC2)c([N+](=O)[O-])cc1[N+](=O)[O-] [CB_1954, 5-(1-aziridinyl)-2,4-dinitrobenzamide] | classified as WT | classified as WT |  |  |
| C=C1[C@@H](O)C2/C=C/C[C@H](C)CCCC(=O)/C=C/C(=O)O[C@]23CN[C@@H](Cc2ccccc2)[C@@H]3[C@@H]1C (some centres unmarked) [Cytochalasin] | classified as WT | classified as WT |  | effect on dysregulation of cell motility genes ([3]; FIG. 2A): worsened the dysregulation; repression of genes aberrantly activated in N1-haploinsufficient ECs ([3]; FIG. 2A): effective at downregulating arterial thrombosis and T cell signal genes; repressive effect on cadherin-11 mRNA expression ([3]; FIG. 9A): strongest repressive effect |
| CC(C)C[C@H](NC(=O)OCC1c2ccccc2-c2ccccc21)C(=O)O [Fmoc-leu, Fmoc-Leucine] | classified as WT | classified as WT |  |  |
| Cc1ccnc(NS(=O)(=O)c2ccc(NC(=O)Nc3ccc(S(=O)(=O)Nc4nccc(C)n4)cc3)cc2)n1 [GSK837149A] | classified as WT | classified as WT |  | restoration of transcription of genes repressed in N1-haploinsufficient ECs ([3]; FIG. 2A): restored transcription of a complementary group of genes involved in angiogenesis and cardiovascular development; restoration of the N1-dependent network as a whole ([3]; FIGS. 2E, 3A): restored more complementary genes to XCT790 |
| OC1(c2ccc(Cl)cc2)CCN(Cc2c[nH]c3ccccc23)CC1 [L-741,626] |  | classified as WT |  |  |
| C=CCN1CC[C@]23c4c5ccc(O)c4O[C@H]2/C(=N/NC(=O)c2ccccc2)CC[C@@]3(O)[C@H]1C5 [Naloxone benzoylhydrazone] |  | classified as WT |  |  |
| CCn1cc(C(=O)O)c(=O)c2cc(F)c(N3CCNCC3)cc21 [Norfloxacin] |  | classified as WT |  |  |
| NCCCCN [Putrescine dihydrochloride, Butane-1,4-diamine] | classified as WT |  |  |  |
| CC(C)(C(=O)NCC(F)(F)C(F)(F)F)C(=O)N[C@@H]1C(=O)Nc2ccccc2-c2ccccc21 [RO-4929097] | classified as WT | classified as WT |  |  |
| CC(C)(C)NCC(O)c1ccccc1Cl (centres unmarked) [Tulobuterol_hydrochloride, tulobuterol hydrochloride] |  | classified as WT |  |  |
| OCc1ccc(-c2nn(Cc3ccccc3)c3ccccc23)o1 [YC-1] |  | classified as WT |  |  |
| C=CCc1ccccc1OCC(O)CNC(C)C (centres unmarked) [alprenolol] |  |  | cluster with WT ECs |  |
| CCCCc1oc2ccccc2c1C(=O)c1cc(I)c(OCCN(CC)CC)c(I)c1 [amiodarone] |  |  | cluster with WT ECs |  |
| C[N+](C)(C)CCOC(N)=O [carbachol] |  |  | cluster with WT ECs |  |
| Cc1ccc(N(CC2=NCCN2)c2cccc(O)c2)cc1 [phentolamine mesylate] |  |  | cluster with WT ECs |  |
| CN1C(C(=O)Nc2ccccn2)=C(O)c2ccccc2S1(=O)=O [piroxicam] |  |  | cluster with WT ECs |  |

Reference: patent publication US12599608B2, “Methods for treating cardiac valve disease” (The Regents of the University of California, priority 2018, dated 2026)
